From patent US9598440B2, “Inhibitors of IRAK4 activity” (MERCK SHARP & DOHME CORP., priority 2012, dated 2017)

Target: IRAK4 (Homo sapiens (Human), UniProt Q9NWZ3)
Experiment: Determination of IRAK4 kinase activity (IMAP fluorescence polarization, phosphorylation of fluorescent peptide substrate)
Type: biochemical
Conditions: 0.5 nM GST tagged IRAK4, 100 nM peptide substrate RP7030, 100 μM ATP, 30 minutes at 25° C.
Experimental: The kinase activity of IRAK4 is determined by its ability to catalyze the phosphorylation of a fluorescent polypeptide substrate. The extent of phosphorylation is measured using IMAP technology (Molecular Devices) where the phosphorylated fluorescent substrate binds to the large M(III)-based nanoparticles which reduces the rotational speed of the substrate and thus increases its fluorescent polarization (FP).
Procedure: A 20 μl reaction mixture contains 10 mM TriHCl, pH 7.2, 0.5 nM GST tagged IRAK4 (SignalChem), 100 nM fluorescent peptide substrate (RP7030, Molecular Devices), 100 μM ATP, 1 mM DTT, 1 mM MgCl2, and 0.01% Tween 20. The reaction is initiated by the addition of ATP. After incubation for 30 minutes at 25° C., 60 μl of Progressive IMAP Reagent (Molecular Devices) is added to stop the reaction. Change in RP7030's FP is determined by a FP reader (Analyst HT, LJL BioSystems). Analytical LCMS Conditions: • Condition A: Phenomenex Luna C18 (4.6×250 mm), 95:5 to 5:95 water:MeCN (0.05% TFA), over 10 min, hold 6 min. • Condition B: Agilent SBC (3.0×50 mm), solvent A: H20-0.1% TFA; • solvent B: ACN-0.1% TFA; GRADIENT TABLE: 0 min:10% B, 0.3 min: 10% B, 1.5 min: 95% B, 2.70 min: 95% B, 2.76 min: 10% B, stop time 3.60 min.

IRAK4, sequence (Q9NWZ3 whole entry): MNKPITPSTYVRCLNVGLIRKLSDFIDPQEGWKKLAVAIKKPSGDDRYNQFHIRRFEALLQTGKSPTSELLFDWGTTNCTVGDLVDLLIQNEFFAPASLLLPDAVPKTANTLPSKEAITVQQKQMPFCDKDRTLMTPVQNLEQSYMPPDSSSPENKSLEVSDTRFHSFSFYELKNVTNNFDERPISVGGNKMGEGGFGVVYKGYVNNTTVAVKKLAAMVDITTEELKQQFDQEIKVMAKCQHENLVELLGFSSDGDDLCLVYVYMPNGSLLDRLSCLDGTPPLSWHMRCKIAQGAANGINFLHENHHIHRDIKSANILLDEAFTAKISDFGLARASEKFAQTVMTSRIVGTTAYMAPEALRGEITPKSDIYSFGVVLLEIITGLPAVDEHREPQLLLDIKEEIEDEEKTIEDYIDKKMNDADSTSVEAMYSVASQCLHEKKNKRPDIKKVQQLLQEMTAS

SMILES | IC50 [nM]
OC[C@H]1C[C@@H](Nc2nc(Nc3cncnc3)ncc2-c2nc3ccccc3s2)[C@H](O)[C@@H]1O [Example 26, (1R,2S,3R,5R)-3-((5-(benzo[d]thiazol-2-yl)-2-(pyrimidin-5-ylamino)pyrimidin-4-yl)amino)-5-(hydroxymethyl)cyclopentane-1,2-diol] | 4.8
NC(=O)c1cccc(Nc2ncc(-c3nc4ccccc4s3)c(N[C@@H]3C[C@H](CO)[C@@H](O)[C@H]3O)n2)c1 [Example 27, 3-((5-(benzo[d]thiazol-2-yl)-4-(((1R,2S,3R,4R)-2,3-dihydroxy-4-(hydroxymethyl)cyclopentyl)amino)pyrimidin-2-yl)amino)benzamide] | 5.3
NC(=O)Cc1ccc(Nc2ncc(-c3nc4ccccc4s3)c(N[C@@H]3C[C@H](CO)[C@@H](O)[C@H]3O)n2)cc1 [Example 29, 2-(4-((5-(benzo[d]thiazol-2-yl)-4-(((1R,2S,3R,4R)-2,3-dihydroxy-4-(hydroxymethyl)cyclopentyl)amino)pyrimidin-2-yl)amino)phenyl)acetamide] | 10
OC[C@H]1C[C@@H](Nc2nc(Nc3ccncc3F)ncc2-c2nc3ccccc3s2)[C@H](O)[C@@H]1O [Example 30, (1R,2S,3R,5R)-3-((5-(benzo[d]thiazol-2-yl)-2-((3-fluoropyridin-4-yl)amino)pyrimidin-4-yl)amino)-5-(hydroxymethyl)cyclopentane-1,2-diol] | 44
Cc1cc(Nc2ncc(-c3nc4ccccc4s3)c(N[C@@H]3C[C@H](CO)[C@@H](O)[C@H]3O)n2)ccn1 [Example 31, (1R,2S,3R,5R)-3-((5-(benzo[d]thiazol-2-yl)-2-((2-methylpyridin-4-yl)amino)pyrimidin-4-yl)amino)-5-(hydroxymethyl)cyclopentane-1,2-diol] | 1.2
OC[C@H]1C[C@@H](Nc2nc(NC3CCCC3)ncc2-c2nc3ccccc3s2)[C@H](O)[C@@H]1O [Example 33, (1R,2S,3R,5R)-3-((5-(benzo[d]thiazol-2-yl)-2-(cyclopentylamino)pyrimidin-4-yl)amino)-5-(hydroxymethyl)cyclopentane-1,2-diol] | 496
CN(C)c1ccc(Nc2ncc(-c3nc4ccccc4s3)c(N[C@@H]3C[C@H](CO)[C@@H](O)[C@H]3O)n2)cc1 [Example 34, (1R,2S,3R,5R)-3-((5-(benzo[d]thiazol-2-yl)-2-((4-(dimethylamino)phenyl)amino)pyrimidin-4-yl)amino)-5-(hydroxymethyl)cyclopentane-1,2-diol] | 12
Cc1cc(C)cc(Nc2ncc(-c3nc4ccccc4s3)c(N[C@@H]3C[C@H](CO)[C@@H](O)[C@H]3O)n2)c1 [Example 35, (1R,2S,3R,5R)-3-((5-(benzo[d]thiazol-2-yl)-2-((3,5-dimethylphenyl)amino)pyrimidin-4-yl)amino)-5-(hydroxymethyl)cyclopentane-1,2-diol] | 10
COc1cccc([C@@H](C)Nc2ncc(-c3nc4ccccc4s3)c(N[C@@H]3C[C@H](CO)[C@@H](O)[C@H]3O)n2)c1 [Example 36, (1R,2S,3R,5R)-3-((5-(benzo[d]thiazol-2-yl)-2-(((R)-1-(3-methoxyphenyl)ethyl)amino)pyrimidin-4-yl)amino)-5-(hydroxymethyl)cyclopentane-1,2-diol] | 470
OC[C@H]1C[C@@H](Nc2nc(Nc3cccnc3)ncc2-c2nc3ccccc3s2)[C@H](O)[C@@H]1O [Example 37, (1R,2S,3R,5R)-3-((5-(benzo[d]thiazol-2-yl)-2-(pyridin-3-ylamino)pyrimidin-4-yl)amino)-5-(hydroxymethyl)cyclopentane-1,2-diol] | 10
Nc1ncc(-c2ccccn2)c(N[C@@H]2C[C@H](CO)[C@@H](O)[C@H]2O)n1 [Example 38, (1R,2S,3R,5R)-3-((2-amino-5-(pyridin-2-yl)pyrimidin-4-yl)amino)-5-(hydroxymethyl)cyclopentane-1,2-diol] | 623
CN(C)c1cccc(Nc2ncc(-c3nc4ccccc4s3)c(N[C@@H]3C[C@H](CO)[C@@H](O)[C@H]3O)n2)c1 [Example 39, (1R,2S,3R,5R)-3-((5-(benzo[d]thiazol-2-yl)-2-((3-(dimethylamino)phenyl)amino)pyrimidin-4-yl)amino)-5-(hydroxymethyl)cyclopentane-1,2-diol] | 8.9
Cc1cc(Nc2ncc(-c3cncs3)c(N[C@@H]3C[C@H](CO)[C@@H](O)[C@H]3O)n2)cc(C)n1 [Example 40, (1R,2S,3R,5R)-3-((2-((2,6-dimethylpyridin-4-yl)amino)-5-(thiazol-5-yl)pyrimidin-4-yl)amino)-5-(hydroxymethyl)cyclopentane-1,2-diol] | 64
Cc1cc(Nc2ncc(-c3cscn3)c(N[C@@H]3C[C@H](CO)[C@@H](O)[C@H]3O)n2)cc(C)n1 [Example 41, (1R,2S,3R,5R)-3-((2-((2,6-dimethylpyridin-4-yl)amino)-5-(thiazol-4-yl)pyrimidin-4-yl)amino)-5-(hydroxymethyl)cyclopentane-1,2-diol] | 7.9
OC[C@H]1C[C@@H](Nc2nc(Nc3ccc(OC(F)(F)F)cc3)ncc2-c2nc3ccccc3s2)[C@H](O)[C@@H]1O [Example 42, (1R,2S,3R,5R)-3-((5-(benzo[d]thiazol-2-yl)-2-((4-(trifluoromethoxy)phenyl)amino)pyrimidin-4-yl)amino)-5-(hydroxymethyl)cyclopentane-1,2-diol] | 552
COc1ccc(Nc2ncc(-c3nc4ccccc4s3)c(N[C@@H]3C[C@H](CO)[C@@H](O)[C@H]3O)n2)cn1 [Example 43, (1R,2S,3R,5R)-3-((5-(benzo[d]thiazol-2-yl)-2-((6-methoxypyridin-3-yl)amino)pyrimidin-4-yl)amino)-5-(hydroxymethyl)cyclopentane-1,2-diol] | 8.2
CN1CCN(c2ccc(Nc3ncc(-c4nc5ccccc5s4)c(N[C@@H]4C[C@H](CO)[C@@H](O)[C@H]4O)n3)cc2)CC1 [Example 44, (1R,2S,3R,5R)-3-((5-(benzo[d]thiazol-2-yl)-2-((4-(4-methylpiperazin-1-yl)phenyl)amino)pyrimidin-4-yl)amino)-5-(hydroxymethyl)cyclopentane-1,2-diol] | 3
CN1CCN(c2cccc(Nc3ncc(-c4nc5ccccc5s4)c(N[C@@H]4C[C@H](CO)[C@@H](O)[C@H]4O)n3)c2)CC1 [Example 45, (1R,2S,3R,5R)-3-((5-(benzo[d]thiazol-2-yl)-2-((3-(4-methylpiperazin-1-yl)phenyl)amino)pyrimidin-4-yl)amino)-5-(hydroxymethyl)cyclopentane-1,2-diol] | 2.6
Nc1ncc(-c2cc3ccccc3s2)c(N[C@@H]2C[C@H](CO)[C@@H](O)[C@H]2O)n1 [Example 46, (1R,2S,3R,5R)-3-((2-amino-5-(benzo[b]thiophen-2-yl)pyrimidin-4-yl)amino)-5-(hydroxymethyl)cyclopentane-1,2-diol] | 1610
OC[C@H]1C[C@@H](Nc2nc(Nc3ccc4[nH]ncc4c3)ncc2-c2nc3ccccc3s2)[C@H](O)[C@@H]1O [Example 50, (1R,2S,3R,5R)-3-((2-((1H-indazol-5-yl)amino)-5-(benzo[d]thiazol-2-yl)pyrimidin-4-yl)amino)-5-(hydroxymethyl)cyclopentane-1,2-diol] | 6.5
OC[C@H]1C[C@@H](Nc2nc(NC3CCNCC3)ncc2-c2nc3ccccc3s2)[C@H](O)[C@@H]1O [Example 52, (1R,2S,3R,5R)-3-((5-(benzo[d]thiazol-2-yl)-2-(piperidin-4-ylamino)pyrimidin-4-yl)amino)-5-(hydroxymethyl)cyclopentane-1,2-diol] | 687
CN1CCC(Nc2ncc(-c3nc4ccccc4s3)c(N[C@@H]3C[C@H](CO)[C@@H](O)[C@H]3O)n2)CC1 [Example 53, (1R,2S,3R,5R)-3-((5-(benzo[d]thiazol-2-yl)-2-((1-methylpiperidin-4-yl)amino)pyrimidin-4-yl)amino)-5-(hydroxymethyl)cyclopentane-1,2-diol] | 2650
OC[C@H]1C[C@@H](Nc2nc(NC3CNC3)ncc2-c2nc3ccccc3s2)[C@H](O)[C@@H]1O [Example 54, (1R,2S,3R,5R)-3-((2-(azetidin-3-ylamino)-5-(benzo[d]thiazol-2-yl)pyrimidin-4-yl)amino)-5-(hydroxymethyl)cyclopentane-1,2-diol] | 736
OC[C@H]1C[C@@H](Nc2nc(NC3CCC3)ncc2-c2ccc3ccccc3n2)[C@H](O)[C@@H]1O [Example 56, 2-(cyclobutylamino)-6-(((1R,2S,3R,4R)-2,3-dihydroxy-4-(hydroxymethyl)cyclopentyl)amino)-5-(quinolin-2-yl)pyrimidine] | 483
OC[C@H]1C[C@@H](Nc2nc(NC3COC3)ncc2-c2ccc3ccccc3n2)[C@H](O)[C@@H]1O [Example 57, 6-(((1R,2S,3R,4R)-2,3-dihydroxy-4-(hydroxymethyl)cyclopentyl)amino)-2-(oxetan-3-ylamino)-5-(quinolin-2-yl)pyrimidine] | 10600
COc1cc(Nc2ncc(-c3ccc4ccccc4n3)c(N[C@@H]3C[C@H](CO)[C@@H](O)[C@H]3O)n2)ccn1 [Example 58, 6-(((1R,2S,3R,4R)-2,3-dihydroxy-4-(hydroxymethyl)cyclopentyl)amino)-2-((2-methoxypyridin-4-yl)amino)-5-(quinolin-2-yl)pyrimidine] | 8
